Data on 2 substances can be found in patent US9260499B2, “Tumor antigen peptide and use thereof” (SAPPORO MEDICAL UNIVERSITY, priority 2008, dated 2016).

One test concerns the target HLA-A0201 (Homo sapiens, UniProt P04439, D140Y/D185E/D98H/E176V/E277Q/G131W/G231S/I119V/I121R/I166T/I218V/L300P/L318F/N151K/N90K/P208A/P217A/Q86G/Q94H/R138H/R169H/T345S). Description: HLA class I stabilization assay, binding affinity to HLA-A0201.
The test system of test [1] is lymphocytes from PBF-positive patients with osteosarcoma. Kind of test: Frequency analysis of antigenic peptide-specific CTLs (LD/MLPC, HLA-A0201/PBF tetramer staining). Format: cell-based, human. How it is done:
Lymphocytes from five PBF-positive patients with osteosarcoma were subjected to ,mixed lymphocyte peptide culture under conditions of limiting dilution (limiting dilution/mixed lymphocyte peptide culture; LD/MLPC) to induce peptide-specific CTLs (Cancer Sci., 2008, 99:368-375, which is incorporated herein by reference). Regarding two patients: Patient Nos. 1 ,and 2, 50 ml of peripheral blood was collected to isolate peripheral blood mononuclear cells (PBMCs). PBMCs were cultured for 60 minutes at room temperature in AIM-V medium (Invitrogen) containing 1% human serum and supplemented with 50 μg/ml of the peptide shown in SEQ ID NO:4. PBMCs which were pulsed with the peptide were plated at 2×10^5 cells/200 μl/well on a U-bottomed 96-well microtiter plate and cultured in AIM-V medium containing 10% human serum, 20 U/ml IL-2, and 10 ng/ml IL-7. Seven days after the culture was started, half of the cultured medium in each well was replaced with AIM-V medium containing IL-2, IL-7, and the peptide shown in SEQ ID NO:4 in order to perform the second stimulation. Cells on 14 to 21 days after the culture was started were used for frequency analysis with a tetramer.
Regarding three patients: Patient Nos. 3, 4, and 5, CD8-positive cells were isolated from PBMCs using magnetic anti-CD8 microbeads (Miltenyi Biotec). CD8-positive cells were pulsed for 60 minutes with the peptide shown in SEQ ID NO:4 and inactivated by radiation. 1.0×10^5 to 2.1×10^5 CD8-positive cells/well were cultured on a 48-well microtiter plate using AIM-V medium containing 10% human serum, 20 U/ml IL-2, and 10 ng/ml IL-7, together with 2×10^5 to 5×10^5 cells/well of irradiated, peptide-pulsed CD8-positive cells. After 7 days of the culture, the irradiated peptide-pulsed CD8-positive cells were added as described above, in order to perform the second stimulation. Cells on 13 to 23 days after the culture was started were used for frequency analysis with a tetramer. A PE-labeled HLA-A0201/PBF tetramer (MBL) which was prepared using the peptide shown in SEQ ID NO:4 was used for the analysis.
An FITC-labeled HLA-A0201/HIV tetramer (MBL) which was prepared using an HIV-derived peptide was used as negative control. Some of the lymphocytes which were cultured using the LD/MLPC method were cultured at room temperature for 15 minutes with the PE-labeled HLA-A0201/PBF tetramer or with the FITC-labeled HLA-A0201/HIV tetramer (10 nM each, in 25 μl of PBS), followed by staining. Further, a PE-Cy5-labeled anti-CD8 antibody ,eBioscience) was added and incubated for 15 minutes, followed by staining. Then, cells were washed twice with PBS, fixed in 0.5% formalin, and analyzed in a flow cytometer FACScan. Living cells which were stained both with the PE-Cy5-labeled anti-CD8 antibody and with the PE-labeled HLA-A0201/PBF tetramer were considered to be tetramer-positive and peptide-specific CTLs. The frequency of CTLs specific for a peptide shown in SEQ ID ,NO:4 was determined using the following equation: Frequency=the number of tetramer-positive wells/(the total number of the wells examined×the number of CD8-positive cells per well at the start of LD/MLPC). Of the five patients, three patients: Patient Nos. […], had frequencies of 5×10^−6, 2×10^−7, and 5×10^−7, respectively.

Where two headings read alike, the source gives them in different places.

Turning to “RGYVYQGL [SEQ ID NO:6, reference compound]”, the “% MFI increase±standard deviation (SD)” value at HLA-A0201 is recorded as 5.6±8.2%.

On to “SEQ ID NO:4: fragment peptide of tumor antigen protein PBF (papillomavirus binding factor) binding to HLA-A2 antigen; synthesized by the Fmoc method (ALPSFQIPV)”, for which, in the test with HLA-A0201 (triplicate, FITC-labeled anti-HLA-A2 antibody BB7.2, flow cytometry), the “% MFI increase±standard deviation (SD)” value is 74.5±6.6%. The “Frequency of CTLs specific for the peptide” value in test [1] (Patient No. 1) is recorded as <1 × 10^−6; in test [1] (Patient No. 2), 5×10^−6; in test [1] (Patient No. 3) it was 2×10^−7; in test [1] (Patient No. 4) it was 5×10^−7; in test [1] (Patient No. 5), <1 × 10^−7. Also, the “Number of tetramer-positive wells” value in test [1] (Patient No. 1, PBMCs, 18 wells tested, 200,000 initial cells per well, 25% CD8) is recorded as 0; in test [1] (Patient No. 2, PBMCs, 46 wells tested, 200,000 initial cells per well, 24% CD8), 10; in test [1] (Patient No. 3, CD8-positive cells, 56 wells tested, 210,000 initial cells per well, 99% CD8), 2; in test [1] (Patient No. 4, CD8-positive cells, 36 wells tested, 150,000 initial cells per well, 99% CD8), 3; in test [1] (Patient No. 5, CD8-positive cells, 103 wells tested, 100,000 initial cells per well, 99% CD8) it was 0.
